Laboratory results taken from patent publication US7396524B2, “Methods for screening compounds for proarrhythmic risk and antiarrhythmic efficacy” (Main Line Health Heart Center, priority 2005, dated 2008).
Where two headings read alike, the source gives them in different places.

Key:
[1] = test system: rabbit left ventricular wedge preparations and single rabbit ventricular myocytes
[2] = test system: rabbit left ventricular wedge preparations; experiment: Rabbit left ventricular wedge preparation: endocardial APD90, EAD and TdP
Protocol: Female rabbits weighting 2.5-3 kg were anticoagulated with heparin and anesthetized with pentobarbital (30-35 mg/kg, i.v.). The chest was opened via a left thoracotomy, and the heart was excised and placed in a cardioplegic solution consisting of cold (4° C.) normal Tyrode's solution. Transmural wedges with dimensions of approximately 1.5 cm wide and 2-3 cm long were dissected from the left ventricle. The wedge tissue was cannulated via the circumflex or left main artery and perfused with cardioplegic solution. The preparation was then placed in a small tissue bath and arterially perfused with Tyrode's solution containing 4 mM K^+ buffered with 95% O2 and 5% CO2 (T: 35.7±0.1° C., perfusion pressure: 35-45 mmHg). The ventricular wedge was allowed to equilibrate in the tissue bath until electrically stable, approximately one hour. The preparations were stimulated at basic cycle lengths (BCL) of 1000 and 2000 ms using bipolar silver electrodes insulated except at the tips and applied to the endocardial surface.
A transmural ECG signal was recorded in all experiments using extracellular silver/silver chloride electrodes placed in the Tyrode's solution bathing the preparation. Electrodes were placed 1.0 to 1.5 cm from the epicardial and endocardial surfaces, along the same vector as the transmembrane recordings (Epi: “+” pole). The QT interval was defined as the time from the onset of the QRS to the point at which the final downslope of the T wave crosses the isoelectric line. Transmembrane action potentials were recorded simultaneously from epicardial and endocardial sites of the rabbit left ventricular wedge preparations. The action potential duration was measured at 90% repolarization (APD90).

[3] = experimental data; cited from earlier work
[4] = cited from earlier work
[5] = test system: Purkinje fiber; details: cited from earlier work
[6] = test system: L-type calcium channel current (ICa,L); experiment: Ratio of ICa,L recovery time constant (whole-cell voltage clamp, double-pulse protocol) to endocardial APD90; format: cell-based; details: 30 μM; control ratio 0.448; rabbit
Protocol: Single rabbit ventricular myocytes were isolated using the enzymatic digestion method as described in Rials et al., Circulation 1997; 96:1330-1336. The rabbit heart was initially perfused with 500 ml Ca^2+-free solution (in mM: NaCl 125, KCl 3.5, KH2PO4 1.5, MgCl2 1, NaHCO3 20, glucose 10) gassed with 95% O2-5% CO2 at 37° C. at a rate of 30 ml/min with a peristaltic pump. The heart was then perfused with 80 ml enzyme solution (48 mg collagenase (type II), 12 mg hyaluronidase, 80 mg BSA, and 300 mg taurine to the Ca^2+-free solution). The enzyme solution passed through the heart a single time before 40 ml, and recirculation after 40 ml. […]
ICa,L was recorded in rabbit single ventricular myocytes at 35.7±0.1° C. using the whole-cell voltage-clamp technique as described by Linz and Meyer, Pflugers Arch. […]
The action potentials were first recorded from the endocardium of the rabbit left ventricular wedge preparation at a basic cycle length of 2000 ms before and after exposure to a test compound. […]
The ratio of ICa,L recovery time constant to endocardial APD90 under control and after exposure to one of the test compounds described above was determined as follows: the ratio equals τ(ms)/APD90 (ms). The relative TdP risk score was then calculated based on the change in the QT interval and the ratio according to the criteria listed in Table 1. […]

Row | SMILES | Maximal TdP Score ([1]; 20 min) | maximal TdP score in the testing concentration range ([1]; 20 min) | also measured
1 | O=C(NCC1CCCCN1)c1cc(OCC(F)(F)F)ccc1OCC(F)(F)F (stereo not shown) [flecainide] | 1.3 ± 0.2 | 1.25±0.22 | –
2 | O=C(CCCN1CCC(O)(c2ccc(Cl)cc2)CC1)c1ccc(F)cc1 [haloperidol] | 4.2 ± 0.6 | 4.20±0.58 | –
3 | CN(CCOc1ccc(NS(C)(=O)=O)cc1)CCc1ccc(NS(C)(=O)=O)cc1 [dofetilide] | – | – | increase in rabbit endocardial APD90 ([2]; dofetilide 0.003 μM vs control, n=8): 76%; development of EAD (preparations) ([2]; dofetilide 0.003 μM, rabbit left ventricular wedge preparations): seven of eight; TdP (rabbits) ([2]; dofetilide 0.01 μM): all of eight; rabbit endocardial APD90 ([2]; female, rabbit, 0.003 μM): 443 ± 27 ms
4 | CN(C)CCCC1(c2ccc(F)cc2)OCc2cc(C#N)ccc21 (stereo not shown) [citalopram] | 1.3 ± 0.2 | 1.25±0.22 | –
5 | CC(C)COCC(CN(Cc1ccccc1)c1ccccc1)N1CCCC1 (stereo not shown) [bepridil] | 7.5 ± 0.3 | 7.50±0.26 | increase in the QT interval [3]: fails to produce a significant increase; TdP risk in humans [4]: known to cause TdP in humans; increase in the action potential duration of the Purkinje fiber [5]: have not been shown to produce a significant increase
6 | CCCCc1oc2ccccc2c1C(=O)c1cc(I)c(OCCN(CC)CC)c(I)c1 [amiodarone] | – | – | TdP risk in humans [4]: rarely causes TdP
7 | CC(C)NCC(O)c1ccc(NS(C)(=O)=O)cc1 (stereo not shown) [sotalol] | 10.0 ± 0.0 | 10.00±0.00 | ratio of ICa,L recovery time constant (τ) to endocardial APD90 [6]: 0.325
8 | CNCCC(Oc1ccc(C(F)(F)F)cc1)c1ccccc1 (stereo not shown) [fluxetine] | – | – | maximal TdP score in the testing concentration range ([1]; Table 1 criteria, means ±SEM, text and FIG. 7 legend): 0.00±0.00; Maximal TdP Score ([1]; Table 2, Table 1 criteria, means ±SEM): 0.0 ± 0.0
9 | C=C[C@H]1C[N@@]2CC[C@H]1C[C@@H]2[C@@H](O)c1ccnc2ccc(OC)cc12 [quinidine] | 11.8 ± 0.2 | 11.75±0.22 | –
10 | COc1c(N2C[C@@H]3CCCN[C@@H]3C2)c(F)cc2c(=O)c(C(=O)O)cn(C3CC3)c12 [moxifloxacin] | 4.0 ± 0.0 | 4.00±0.00 | –
